{"source": "patent US4816472A", "about": "“Derivatives of 19,20-Bis-nor-prostanoic acid with antiulcer and anorectic activity, process for their preparation and pharmaceutical compositions thereof” (Istituto Biochemico Italiano Giovanni Lorenzini S.p.A., priority 1985, dated 1989)", "key": {"[1]": {"system": "ethanol induced ulcers in the rat", "assay": "Ethanol induced ulcers in the rat", "type": "in vivo", "description": "(§1) The anitulcer activity of these derivatives was evaluated on ulcers induced by the administration of ethanol, hydrochloric acid and sodium hydroxide in the rat, also on gastric ulcers induced by aspirin in the rat, and on their influence on gastric secretions in the rat.\n(1) Ethanol induced ulcers in the rat:\nThe method used is that described by A. Robert et al, in Gastroenterology 77,433 (1979), the disclosure of which is incorporated herein by reference."}, "[2]": {"system": "gastric secretion in the rat", "assay": "Gastric secretion in the rat", "type": "in vivo, Sprague-Dawley rats", "description": "as §1\n(5) Gastric secretion in the rat:\nSprague-Dawley rats of both sexes are used for this test. The gastric secretion is rated according to the method described by H. Shay et al in Gastroenterology 5,43 (1945) the disclosure of which is incorporated herein by reference."}, "[3]": {"system": "NaOH induced ulcers in the rat", "assay": "Sodium hydroxide induced ulcers in the rat", "type": "in vivo", "description": "as §1\n(3) Sodium hydroxide induced ulcers in the rat:\nAlso this test is performed in accordance with the method described by A. Robert et al, in Gastroenterology, 77,433 (1979), the disclosure of which is incorporated herein by reference."}, "[4]": {"system": "aspirin-induced ulcers in the rat", "assay": "Aspirin induced gastric ulcers in the rat", "type": "in vivo", "settings": "200 mg/kg of drug", "description": "as §1\n(4) Aspirin induced gastric ulcers in the rat:\nFor carrying out this test, the method described by H. A. Carmichael, L. M. Nelson, R. I. Russel in Gastroenterology 74, 1229 (1978) is used, the disclosure of which is incorporated herein by reference."}, "[5]": {"system": "gastric depletion in the rat", "assay": "Gastric depletion in the rat", "type": "in vivo", "settings": "50 mg/kg", "description": "Gastric depletion in the rat.\nRats of both sexes and mean weight of 180-200 g are used. The animals are subjected to fasting for 24 hours but have free access to water up to 3 hours prior to the test.\nPreparation of phenyl red solution: 50 mg of phenyl red is mixed with 100 ml of a 1.5% methyl cellulose solution and shaken for 5 hours.\n1.5 ml per rat is administered irrespective of weight.\nThe rats are sacrificed by cervix translocation: the stomach is taken out after ligaturing the cardias and pilorus.\nThe entire stomach and contents are placed in the container of a homogenizer with 50 ml of 0.1N NaOH. They are homogenized for 2 minutes at a maximum velocity. They homogenate is transferred to a test-tube and left to settle for one hour.\n5 ml of the supernatant is taken out and put into a centrifuge tube and mixed with 0.5 ml of 20% (w/v) trichloroacetic acid. The tube is centrifuged at 2500 rpm for 20 min. The entire supernatant is taken and mixed with 4 ml of 0.4N NaOH, and its absorbance is measured at 560λ.\nGastric depletion is calculated according to the following formula:\n(1-sample absorbance/standard absorbance)×100\nAs \"standard absorbance\" is considered the mean value of spectophotometric measurement of 4 animals sacrificed immediately after administering phenyl red."}, "[6]": {"system": "peptic ulcer", "settings": "previous finding; cited from earlier work"}, "[7]": {"system": "HCl induced ulcers in the rat", "assay": "Hydrochloric acid induced ulcers in the rat", "type": "in vivo", "description": "as §1\n(2) Hydrochloric acid induced ulcers in the rat:\nThe method used for this test is that described by A. Robert et al, in Gastroenterology, 77,433, (1979), the disclosure of which is incorporated herein by reference."}}, "note": "Counter-ions that a name gives are not always drawn."}
{"compound": "CCCCCCC1CCC(NC(C)C)C1CCCCCCC(=O)O", "note": "(stereo not shown) [drawing 11]", "values": [{"measurement": "Percent inhibition of ethanol induced ulcers in the rat", "setting": "[1]; 10 mg/kg", "result": 9, "unit": "%"}, {"measurement": "Percent inhibition of ethanol induced ulcers in the rat", "setting": "[1]; 25 mg/kg", "result": 34, "unit": "%"}, {"measurement": "Percent inhibition of ethanol induced ulcers in the rat", "setting": "[1]; 50 mg/kg", "result": 65, "unit": "%"}]}
{"compound": "CCCCCCC1CCC(NC(C)=O)C1CCCCCCC(=O)O", "note": "(stereo not shown) [drawing 36]", "values": [{"measurement": "Percent inhibition of gastric secretion in the rat", "setting": "[2]; 25 mg/kg, 2 h after treatment", "result": 51, "unit": "%"}, {"measurement": "Percent inhibition of gastric secretion in the rat", "setting": "[2]; 25 mg/kg, 4 h after treatment", "result": 0, "unit": "%"}, {"measurement": "Percent inhibition of gastric secretion in the rat", "setting": "[2]; 50 mg/kg, 2 h after treatment", "result": 48, "unit": "%"}, {"measurement": "Percent inhibition of gastric secretion in the rat", "setting": "[2]; 50 mg/kg, 4 h after treatment", "result": 12, "unit": "%"}, {"measurement": "Percent inhibition of gastric secretion in the rat", "setting": "[2]; 100 mg/kg, 2 h after treatment", "result": 70, "unit": "%"}, {"measurement": "Percent inhibition of gastric secretion in the rat", "setting": "[2]; 100 mg/kg, 4 h after treatment", "result": 59, "unit": "%"}]}
{"compound": "CCCCCCC1CCC(N(C)C)C1CCCCCCC(=O)O", "note": "(stereo not shown) [drawing 22]", "values": [{"measurement": "Percent inhibition of NaOH induced ulcers in the rat", "setting": "[3]; 12.5 mg/kg", "result": 52, "unit": "%"}, {"measurement": "Percent inhibition of NaOH induced ulcers in the rat", "setting": "[3]; 25 mg/kg", "result": 63, "unit": "%"}, {"measurement": "Percent inhibition of NaOH induced ulcers in the rat", "setting": "[3]; 50 mg/kg", "result": 74, "unit": "%"}]}
{"compound": "CCCCCCC1CCC(N)C1CCCCCCC(=O)O", "note": "(stereo not shown) [drawing 20]", "values": [{"measurement": "Percent inhibition of NaOH induced ulcers in the rat", "setting": "[3]; 5 mg/kg", "result": 37, "unit": "%"}, {"measurement": "Percent inhibition of NaOH induced ulcers in the rat", "setting": "[3]; 10 mg/kg", "result": 54, "unit": "%"}, {"measurement": "Percent inhibition of NaOH induced ulcers in the rat", "setting": "[3]; 25 mg/kg", "result": 80, "unit": "%"}]}
{"compound": "CCCCCCC1CCC(N)C1CCCCCCC(=O)O", "note": "(stereo not shown) [drawing 8]", "values": [{"measurement": "Percent inhibition of ethanol induced ulcers in the rat", "setting": "[1]; 2.5 mg/kg", "result": 40, "unit": "%"}, {"measurement": "Percent inhibition of ethanol induced ulcers in the rat", "setting": "[1]; 5 mg/kg", "result": 50, "unit": "%"}, {"measurement": "Percent inhibition of ethanol induced ulcers in the rat", "setting": "[1]; 10 mg/kg", "result": 70, "unit": "%"}, {"measurement": "Percent inhibition of ethanol induced ulcers in the rat", "setting": "[1]; 25 mg/kg", "result": 67, "unit": "%"}, {"measurement": "Percent inhibition of ethanol induced ulcers in the rat", "setting": "[1]; 50 mg/kg", "result": 88, "unit": "%"}]}
{"compound": "CCCCCCC1CCC(O)C1CCCCCCC(=O)O", "note": "(stereo not shown) [drawing 31]", "values": [{"measurement": "Percent inhibition of aspirin-induced ulcers in the rat", "setting": "[4]", "result": 64, "unit": "%"}]}
{"compound": "CCCCCCC1CCC(N(C)C)C1CCCCCCC(=O)O", "note": "(stereo not shown) [drawing 40]", "values": [{"measurement": "inhibition values of gastric depletion", "setting": "[5]", "result": 55, "unit": "%"}]}
{"compound": "CCCCCCC1CCC(O)C1CCCCCCC(=O)O", "note": "(stereo not shown) [Rosaprostol, 9-hydroxy-91,20-bis-nor-prostanoic acid sodium salt]", "values": [{"measurement": "antiulcer properties of the natural prostaglandins / other prostaglandin properties", "setting": "[6]", "result": "maintaining the antiulcer properties of the natural prostaglandins, completely loses the others"}]}
{"compound": "CCCCCCC1CCC(NC(C)C)C1CCCCCCC(=O)O", "note": "(stereo not shown) [drawing 41]", "values": [{"measurement": "inhibition values of gastric depletion", "setting": "[5]", "result": 14, "unit": "%"}]}
{"compound": "CCCCCCC1CCC(NC(C)C)C1CCCCCCC(=O)O", "note": "(stereo not shown) [drawing 35]", "values": [{"measurement": "Percent inhibition of gastric secretion in the rat", "setting": "[2]; 25 mg/kg, 2 h after treatment", "result": 35, "unit": "%"}, {"measurement": "Percent inhibition of gastric secretion in the rat", "setting": "[2]; 25 mg/kg, 4 h after treatment", "result": 0, "unit": "%"}, {"measurement": "Percent inhibition of gastric secretion in the rat", "setting": "[2]; 50 mg/kg, 2 h after treatment", "result": 56, "unit": "%"}, {"measurement": "Percent inhibition of gastric secretion in the rat", "setting": "[2]; 50 mg/kg, 4 h after treatment", "result": 46, "unit": "%"}, {"measurement": "Percent inhibition of gastric secretion in the rat", "setting": "[2]; 100 mg/kg, 2 h after treatment", "result": 37, "unit": "%"}, {"measurement": "Percent inhibition of gastric secretion in the rat", "setting": "[2]; 100 mg/kg, 4 h after treatment", "result": 54, "unit": "%"}]}
{"compound": "CCCCCCC1CCC(NC(C)=O)C1CCCCCCC(=O)O", "note": "(stereo not shown) [drawing 18]", "values": [{"measurement": "Percent inhibition of HCl induced ulcers in the rat", "setting": "[7]; 25 mg/kg", "result": 15, "unit": "%"}, {"measurement": "Percent inhibition of HCl induced ulcers in the rat", "setting": "[7]; 50 mg/kg", "result": 66, "unit": "%"}]}
{"compound": "CCCCCCC1CCC(O)C1CCCCCCC(=O)O", "note": "(stereo not shown) [drawing 37]", "values": [{"measurement": "Percent inhibition of gastric secretion in the rat", "setting": "[2]; 25 mg/kg, 2 h after treatment", "result": 0, "unit": "%"}, {"measurement": "Percent inhibition of gastric secretion in the rat", "setting": "[2]; 25 mg/kg, 4 h after treatment", "result": 15, "unit": "%"}, {"measurement": "Percent inhibition of gastric secretion in the rat", "setting": "[2]; 50 mg/kg, 2 h after treatment", "result": 30, "unit": "%"}, {"measurement": "Percent inhibition of gastric secretion in the rat", "setting": "[2]; 100 mg/kg, 2 h after treatment", "result": 50, "unit": "%"}, {"measurement": "Percent inhibition of gastric secretion in the rat", "setting": "[2]; 100 mg/kg, 4 h after treatment", "result": 45, "unit": "%"}]}
{"compound": "CCCCCCC1CCC(NC)C1CCCCCCC(=O)O", "note": "(stereo not shown) [drawing 15]", "values": [{"measurement": "Percent inhibition of HCl induced ulcers in the rat", "setting": "[7]; 25 mg/kg", "result": 40, "unit": "%"}, {"measurement": "Percent inhibition of HCl induced ulcers in the rat", "setting": "[7]; 50 mg/kg", "result": 49, "unit": "%"}, {"measurement": "Percent inhibition of HCl induced ulcers in the rat", "setting": "[7]; 100 mg/kg", "result": 66, "unit": "%"}]}
{"compound": "CCCCCCC1CCC(NC)C1CCCCCCC(=O)O", "note": "(stereo not shown) [drawing 27]", "values": [{"measurement": "Percent inhibition of aspirin-induced ulcers in the rat", "setting": "[4]", "result": 87, "unit": "%"}]}
{"compound": "CCCCCCC1CCC(NC)C1CCCCCCC(=O)O", "note": "(stereo not shown) [drawing 33]", "values": [{"measurement": "Percent inhibition of gastric secretion in the rat", "setting": "[2]; 25 mg/kg, 2 h after treatment", "result": 0, "unit": "%"}, {"measurement": "Percent inhibition of gastric secretion in the rat", "setting": "[2]; 25 mg/kg, 4 h after treatment", "result": 40, "unit": "%"}, {"measurement": "Percent inhibition of gastric secretion in the rat", "setting": "[2]; 50 mg/kg, 2 h after treatment", "result": 54, "unit": "%"}, {"measurement": "Percent inhibition of gastric secretion in the rat", "setting": "[2]; 50 mg/kg, 4 h after treatment", "result": 49, "unit": "%"}, {"measurement": "Percent inhibition of gastric secretion in the rat", "setting": "[2]; 100 mg/kg, 2 h after treatment", "result": 79, "unit": "%"}, {"measurement": "Percent inhibition of gastric secretion in the rat", "setting": "[2]; 100 mg/kg, 4 h after treatment", "result": 66, "unit": "%"}]}
{"compound": "CCCCCCC1CCC(N)C1CCCCCCC(=O)O", "note": "(stereo not shown) [drawing 26]", "values": [{"measurement": "Percent inhibition of aspirin-induced ulcers in the rat", "setting": "[4]", "result": 72, "unit": "%"}]}
{"compound": "CCCCCCC1CCC(NC(C)=O)C1CCCCCCC(=O)O", "note": "(stereo not shown) [drawing 30]", "values": [{"measurement": "Percent inhibition of aspirin-induced ulcers in the rat", "setting": "[4]", "result": 58, "unit": "%"}]}
{"compound": "CCCCCCC1CCC(N(C)C)C1CCCCCCC(=O)O", "note": "(stereo not shown) [drawing 16]", "values": [{"measurement": "Percent inhibition of HCl induced ulcers in the rat", "setting": "[7]; 25 mg/kg", "result": 23, "unit": "%"}, {"measurement": "Percent inhibition of HCl induced ulcers in the rat", "setting": "[7]; 50 mg/kg", "result": 55, "unit": "%"}, {"measurement": "Percent inhibition of HCl induced ulcers in the rat", "setting": "[7]; 100 mg/kg", "result": 63, "unit": "%"}]}
